In patent US20250230193A1, “CYCLIC COMPOUND HAVING SELECTIVE KRAS INHIBITORY EFFECT ON HRAS AND NRAS” (CHUGAI SEIYAKU KABUSHIKI KAISHA, priority 2022, published 2025):
*1 amine or outer side, *2 acyl side, *3 side chain or, on linkers, in order; H or OH if unused. Where a SMILES comes first, the peptide text is derived from it. Bridges are numbered along the chain shown (N, C = ends). [ ]: non-standard residue; d: D form. The star is where a group is joined. hPhe(3-Cl-4-CF3) = N[C@@H](CCc1ccc(C(F)(F)F)c(Cl)c1)C(=O)O; X11 = C=CCN([C@@H](Cc1ccc(C(F)(F)F)cc1)C(=O)[*:2])[*:1]; NPrPhe(4-CF3) = CCCN[C@@H](Cc1ccc(C(F)(F)F)cc1)C(=O)O; NMeGly(cPent) = CN[C@H](C(=O)O)C1CCCC1; NMeGly(cBu) = CN[C@H](C(=O)O)C1CCC1; NMeD = CN[C@@H](CC(=O)O)C(=O)O; NMeL = CN[C@@H](CC(C)C)C(=O)O; Morpholide = C1CN(*)CCO1; NMeA = CN[C@@H](C)C(=O)O; Ac5c = NC1(C(=O)O)CCCC1; Aze = O=C(O)[C@@H]1CCN1; Sar = CNCC(=O)O

Assays:
[1] = target: GDP-bound HRAS wild-type protein (Homo sapiens, UniProt P01112); assay: Binding to HRAS by surface plasmon resonance (SPR), Single Cycle Kinetics; conditions: SPR; for HRAS/KRAS (ratio of KD value with respect to HRAS to KD value with respect to KRAS): GDP-bound HRAS wild-type vs GDP-bound KRAS wild-type; for HRAS/KRAS (ratio of KD value with respect to GDP-bound HRAS wild-type protein to KD value with respect to KRAS): GDP-bound wild-type proteins
[2] = target: GDP-bound NRAS wild-type protein (Homo sapiens, UniProt P01111); assay: Binding to NRAS by surface plasmon resonance (SPR), Single Cycle Kinetics; conditions: SPR; for NRAS/KRAS (ratio of KD value with respect to NRAS to KD value with respect to KRAS): GDP-bound NRAS wild-type vs GDP-bound KRAS wild-type; for NRAS/KRAS (ratio of KD value with respect to GDP-bound NRAS wild-type protein to KD value with respect to KRAS): GDP-bound wild-type proteins
Sequence of GDP-bound NRAS wild-type protein (P01111 whole entry): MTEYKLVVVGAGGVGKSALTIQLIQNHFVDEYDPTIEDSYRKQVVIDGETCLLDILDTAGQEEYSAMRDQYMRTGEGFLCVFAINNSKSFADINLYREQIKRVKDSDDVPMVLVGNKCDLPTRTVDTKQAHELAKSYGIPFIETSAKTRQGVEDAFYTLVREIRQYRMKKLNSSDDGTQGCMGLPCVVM

Sequence of GDP-bound HRAS wild-type protein (P01112 whole entry): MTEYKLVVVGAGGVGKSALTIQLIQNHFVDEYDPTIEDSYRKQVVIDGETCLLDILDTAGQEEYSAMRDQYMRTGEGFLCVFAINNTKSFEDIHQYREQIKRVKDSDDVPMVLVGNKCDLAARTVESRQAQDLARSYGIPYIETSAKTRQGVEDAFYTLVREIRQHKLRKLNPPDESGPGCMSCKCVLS

CC[C@H](C)[C@@H]1NC(=O)[C@H](CC)N(C)C(=O)C[C@@H](C(=O)N(C)C)N(C)C(=O)[C@H](C2CCCC2)N(C)C(=O)C2(CCC2)NC(=O)[C@@H]2C[C@@H](OC)CN2C(=O)[C@H](CCc2cc(F)c(C(F)(F)F)c(F)c2)NC(=O)CN(C)C(=O)[C@H](Cc2ccc(C(F)(F)F)cc2)N2CC/C=C\C[C@@H](C2=O)N(C)C(=O)CN(C)C1=O [PP1130]
HRAS/KRAS (ratio of KD value with respect to HRAS to KD value with respect to KRAS) ([1]; KD ratio): B (a compound having 3 or more and less than 10 is denoted as B)
NRAS/KRAS (ratio of KD value with respect to NRAS to KD value with respect to KRAS) ([2]; KD ratio): A (a compound having 10 or more and less than 20 is denoted as A)

CC[C@H](C)[C@@H]1NC(=O)[C@@H]2CCC/C=C/c3ccc(cc3)C[C@@H](C(=O)N(C)CC(=O)N[C@@H](CCc3ccc(Cl)c(Cl)c3)C(=O)N3C[C@H](OC4CCCC4)C[C@H]3C(=O)NC3(CC(C)(C)C3)C(=O)N(C)[C@@H](C3CCCC3)C(=O)N(C)[C@H](C(=O)N3CCCC3)CC(=O)N2C)N2CC/C=C\C[C@@H](C2=O)N(C)C(=O)CN(C)C1=O [PP3054]
HRAS/KRAS (ratio of KD value with respect to GDP-bound HRAS wild-type protein to KD value with respect to KRAS) [1]: A (a compound having 10 or more and less than 20 is denoted as A)
NRAS/KRAS (ratio of KD value with respect to GDP-bound NRAS wild-type protein to KD value with respect to KRAS) [2]: A (a compound having 10 or more and less than 20 is denoted as A)

C=CCN1C(=O)CN(C)C(=O)CN(C)C(=O)[C@H]([C@@H](C)CC)NC(=O)[C@H](CC(C)C)N(C)C(=O)C[C@@H](C(=O)N2CCOCC2)N(C)C(=O)[C@H](C2CCCC2)N(C)C(=O)C2(CCCC2)NC(=O)[C@@H]2CCCN2C(=O)[C@H](CCc2ccc(C(F)(F)F)c(Cl)c2)NC(=O)CN(C)C(=O)[C@@H]1Cc1ccc(C(F)(F)F)cc1 [PP0128] ([NMeL]I[Sar][Sar][X11][Sar][hPhe(3-Cl-4-CF3)]P[Ac5c][NMeGly(cPent)][NMeD]-Morpholide; lactam N-11)
HRAS/KRAS (ratio of KD for GDP-bound HRAS wild-type to KD for KRAS) [1]: C (A compound having a KD ratio of 0.1 or more and less than 3 is denoted as C)
NRAS/KRAS (ratio of KD for GDP-bound NRAS wild-type to KD for KRAS) [2]: C (A compound having a KD ratio of 0.1 or more and less than 3 is denoted as C)

CCCN1C(=O)[C@@H]2CCN2C(=O)[C@H](C)N(C)C(=O)[C@H]([C@@H](C)CC)NC(=O)[C@H](C2CCC2)N(C)C(=O)C[C@@H](C(=O)N2CCOCC2)N(C)C(=O)[C@H](C2CCCC2)N(C)C(=O)C2(CCCC2)NC(=O)[C@@H]2CCCN2C(=O)[C@H](CCc2ccc(C(F)(F)F)c(Cl)c2)NC(=O)CN(C)C(=O)[C@@H]1Cc1ccc(C(F)(F)F)cc1 [PP0192] ([NMeGly(cBu)]I[NMeA][Aze][NPrPhe(4-CF3)][Sar][hPhe(3-Cl-4-CF3)]P[Ac5c][NMeGly(cPent)][NMeD]-Morpholide; lactam N-11)
HRAS/KRAS (ratio of KD for GDP-bound HRAS wild-type to KD for KRAS) [1]: B (a compound having 3 or more and less than 10 is denoted as B)
NRAS/KRAS (ratio of KD for GDP-bound NRAS wild-type to KD for KRAS) [2]: C (A compound having a KD ratio of 0.1 or more and less than 3 is denoted as C)

CCO[C@@H]1C[C@H]2C(=O)NC3(CCC3)C(=O)N(C)[C@@H](C3CCCC3)C(=O)N(C)[C@H](C(=O)N(C)C)CC(=O)N(C)[C@@H](Cc3cccc(F)c3)C(=O)N[C@@H]([C@@H](C)CC)C(=O)N(C)CC(=O)N(C)[C@H]3CCCCCN(C3=O)[C@@H](Cc3ccc(C(F)(F)F)cc3)C(=O)N(C)CC(=O)N[C@@H](CCc3cc(F)c(C(F)(F)F)c(F)c3)C(=O)N2C1 [PP0935]
HRAS/KRAS (ratio of KD value with respect to HRAS to KD value with respect to KRAS) ([1]; KD ratio): B (a compound having 3 or more and less than 10 is denoted as B)
NRAS/KRAS (ratio of KD value with respect to NRAS to KD value with respect to KRAS) ([2]; KD ratio): B (a compound having 3 or more and less than 10 is denoted as B)

CCC[C@H]1C(=O)N[C@@H]([C@@H](C)CC)C(=O)N(C2CC2)CC(=O)N(C)[C@H]2C/C=C\CCN(C2=O)[C@@H](CC2CCC(F)(F)CC2)C(=O)N(C)CC(=O)N[C@@H](CCc2ccc(C(F)(F)F)c(OC)c2)C(=O)N2C[C@H](OCC)C[C@H]2C(=O)N(C)C2(CCC2)C(=O)N(C)[C@@H](C2CCCC2)C(=O)N(C)[C@H](C(=O)N(C)C)CC(=O)N1C [PP2352]
HRAS/KRAS (ratio of KD value with respect to HRAS to KD value with respect to KRAS) [1]: A (a compound having 10 or more and less than 20 is denoted as A)
NRAS/KRAS (ratio of KD value with respect to NRAS to KD value with respect to KRAS) [2]: A (a compound having 10 or more and less than 20 is denoted as A)

CCC[C@H]1C(=O)N[C@@H]([C@@H](C)CC)C(=O)N(C)CC(=O)N(C)[C@H]2C/C=C\CCN(C2=O)[C@@H](Cc2ccc(C)cc2)C(=O)N(C)CC(=O)N[C@@H](CCc2ccc(C(F)(F)F)c(OC)c2)C(=O)N2CC3(CC3)C[C@H]2C(=O)NC2(CC(C)(C)C2)C(=O)N(C)[C@@H]([C@@H](C)CC)C(=O)N(C)[C@H](C(=O)N(C)C)CC(=O)N1C [PP3011]
HRAS/KRAS (ratio of KD value with respect to GDP-bound HRAS wild-type protein to KD value with respect to KRAS) [1]: B (a compound having 3 or more and less than 10 is denoted as B)
NRAS/KRAS (ratio of KD value with respect to GDP-bound NRAS wild-type protein to KD value with respect to KRAS) [2]: A (a compound having 10 or more and less than 20 is denoted as A)
